Experimental data from PMC11189555, “Aryl amino acetamides prevent Plasmodium falciparum ring development via targeting the lipid-transfer protein PfSTART1” (Nature Communications, 2024).
Where “and” joins values, the source holds several entries; their conditions need not be identical. Equal values may be shown once. Read-outs that look alike come from different tables or passages of the source.

Test system: SLI-WT parasites
Assay: Growth inhibition assay (72 h, LDH activity)
Assay type: cell-based, Plasmodium falciparum
Details: for Growth inhibition, (1 - av / DMSO) x 100: Fig 2B source data, per biological replicate; for sample/DMSO: START(WT); for EC50: Plasmodium falciparum; for percent growth inhibition relative to DMSO control: START(WT) (SLI-WT)
Experimental: Parasite growth assays with inhibitory compounds were performed as per[11] and are fully described in the Supplementary Information.
Molecular biology and transfection of P. falciparum: Selection Linked Integration […]
To introduce the PfSTART1 mutations, the second half of the coding sequence of pfstart1 (PF3D7_0104200), was recodonised without introns to the bias of Saccharomyces cerevisiae containing either WT, N309K or N330K mutations, and synthesised as gBlock fragments (Integrated DNA Technologies). The first 819 bp of the 5′ native sequence of pfstart1 was amplified from gDNA, to form the 5’ homology block (5’ HB). The 3′ recodonised gBlock fragment comprising of the last 552 bp of either the WT, N309K or N330K pfstart1 to form the ‘recodon’ block (primers listed in Table S2). The 5’ HB and recodon products were sewn together by overlapping PCR to reconstitute the full coding sequence of pfstart1. These blocks (WT/N309K/N330K) were digested with BglII/PstI, and inserted into the parasite vector p-HA-2A-Neo-glmS
1. This plasmid contains an in -frame haemagglutinin (HA) epitope for protein identification and a P2A peptide (2A) to skip continuous peptide bond synthesis of a downstream neomycin resistance gene ( NeoR).
Parasites containing the transfected DNA were selected using 2.5 nM WR99210 (Jacobus). To select for parasites in which single crossover integration had occurred into the pfstart1 locus, parasites were treated with 400 μg/mL G418 (geniticin, Sigma Aldrich) for 14 days: only parasites that have integrated the construct into their genome expressed the neomycin resistance gene together with the PfSTART1 protein.
Parasite lines were cloned using limiting dilution. These clones were then tested on Western Blot (for correct HA-tagging and protein size), and correct integration and sequence were tested by PCR analysis: PCR on the gDNA was conducted using the primers START_5’UTR.F and START_Seq.R (Table S2). […]
Growth inhibition assays. Synchronised ring-stage parasites (0.3-0.6% parasitemia, 2% haematocrit) were grown for 72 h in a serial-dilution of the compound under […]
and compound 4. Note that M-833 was first purchased from MolPort (MolPort -002-267-916) then made in-house at WEHI: the differences observed in EC50s across experiments are attributed to the different batches of M -833. For some experiments, 0, 0.25 or 2.5 mM of glucosamine (GlcN) was also added. Experiments were set up in technical duplicates or triplicates. Following a freeze -thaw cycle, lactate dehydrogenase (LDH) activity was assessed as an indicator of parasite growt h 5. 30 μL of parasite culture was incubated for 30 min in the dark with 75 μL Malstat mixture (0.1 M Tris pH 9.0, 20 g/L lactic acid, pH 7.5, 0.2% Triton-X100, 0.5 g/L acetylpyridine adenine dinucleotide (APAD, Sigma), 200 μg/mL nitroblue tetrazolium (NBT; Sigma), 1 μg/mL phenozine ethosulfate (PES; Sigma)). Absorbance was then measured at 650 nm, transformed using the formula below, plotted against the logarithm of the concentrations, and a non-linear regression (log(inhibitor) vs. response, variable slope) was calculated using GraphPad Prism to assess the half-inhibitory […]
Growth inhibition % = (1 − average(sample)− average(uRBC)) ∗ 100 […]
The DMSO samples were also used to assess growth of parasite in the presence of 0.25 and 2.5 mM GlcN (normalised by DMSO in 0 mM GlcN).
Egress, invasion & recovery assay. To measure egress, invasion and follow up recovery in the presence of different compounds, we adapted the method developed in6, using Hyp1-Nluc parasites7. These parasites episomally express the exported PEXEL protein Hyp1 (PF3D7_0113300) tagged with a NanoLuc luciferase (NLuc) and were selected with 2.5 nM WR99210 (Jacobus). Highly synchronised schizonts were obtained using ML10 (LifeArc) and sorbitol synchronisation, and Percoll-purified (the culture was gently layered over 67% Percoll (Cytiva) in RPMI, and centrifuged for 15 min at 1500 g and the schizont layer was collected and washed). […]

Cc1cc(Cl)c(S(=O)(=O)N2CCCC2)cc1OCC(=O)NC1CCCCC1 [M-833]
Growth inhibition, (1 - av / DMSO) x 100 (SLI-WT, M-833 conc 0.00152416 (unit not given)): 17.8235% and 9.909% and 33.7545%
Growth inhibition, (1 - av / DMSO) x 100 (SLI-WT, M-833 conc 0.00457247 (unit not given)): 32.5193% and 13.2196% and 48.23%
Growth inhibition, (1 - av / DMSO) x 100 (SLI-WT, M-833 conc 0.0137174 (unit not given)): 64.9814% and 33.9327% and 65.9574%
Growth inhibition, (1 - av / DMSO) x 100 (SLI-WT, M-833 conc 0.0411523 (unit not given)): 82.6478% and 70.7748% and 84.2144%
Growth inhibition, (1 - av / DMSO) x 100 (SLI-WT, M-833 conc 0.123457 (unit not given)): 87.5893% and 87.6138% and 93.5055%
Growth inhibition, (1 - av / DMSO) x 100 (SLI-WT, M-833 conc 0.37037 (unit not given)): 88.1748% and 91.0017% and 95.8283%
Growth inhibition, (1 - av / DMSO) x 100 (SLI-WT, M-833 conc 1.11111 (unit not given)): 89.8172% and 92.0512% and 95.1872%
Growth inhibition, (1 - av / DMSO) x 100 (SLI-WT, M-833 conc 3.33333 (unit not given)): 91.3453% and 92.3754% and 94.862%
Growth inhibition, (1 - av / DMSO) x 100 (SLI-WT, M-833 conc 10 (unit not given)): 91.9594% and 91.8274% and 95.2708%
sample/DMSO (M-833 0.000508053 uM, 0 mM GlcN, biological replicates 1-3): 27.927 and 21.9727 and 25
sample/DMSO (M-833 0.000508053 uM, 0.25 mM GlcN, biological replicates 1-3): 42.2036 and 30.1606 and 32.1527
sample/DMSO (M-833 0.000508053 uM, 2.5 mM GlcN, biological replicates 1-3): 50.9566 and 35.9886 and 36.6839
sample/DMSO (M-833 0.00152416 uM, 0 mM GlcN, biological replicates 1-4): 49.0407 and 28.0532 and 35.8147 and 28.6219
sample/DMSO (M-833 0.00152416 uM, 0.25 mM GlcN, biological replicates 1-4): 60.3487 and 47.5652 and 43.8309
sample/DMSO (M-833 0.00152416 uM, 2.5 mM GlcN, biological replicates 1-4): 64.731 and 51.7963 and 44.8107 and 40.64
sample/DMSO (M-833 0.00457247 uM, 0 mM GlcN, biological replicates 1-4): 71.0997 and 42.5489 and 51.2149 and 44.2813
sample/DMSO (M-833 0.00457247 uM, 0.25 mM GlcN, biological replicates 1-4): 74.8396 and 65.6157 and 57.2049
sample/DMSO (M-833 0.00457247 uM, 2.5 mM GlcN, biological replicates 1-4): 78.1904 and 72.0515 and 57.0638 and 53.24
sample/DMSO (M-833 0.0137174 uM, 0 mM GlcN, biological replicates 1-4): 83.6593 and 61.2338 and 74.7499 and 69.6413
sample/DMSO (M-833 0.0137174 uM, 0.25 mM GlcN, biological replicates 1-4): 88.8842 and 81.3121 and 70.4954
sample/DMSO (M-833 0.0137174 uM, 2.5 mM GlcN, biological replicates 1-4): 87.5985 and 84.0064 and 69.7195 and 63.44
sample/DMSO (M-833 0.0411523 uM, 0 mM GlcN, biological replicates 1-4): 94.394 and 79.7192 and 91.2101 and 80.3728
sample/DMSO (M-833 0.0411523 uM, 0.25 mM GlcN, biological replicates 1-4): 94.2399 and 92.19 and 82.349
sample/DMSO (M-833 0.0411523 uM, 2.5 mM GlcN, biological replicates 1-4): 91.9649 and 89.5193 and 74.7012 and 67.08
sample/DMSO (M-833 0.123457 uM, 0 mM GlcN, biological replicates 1-4): 97.6883 and 88.7403 and 94.7713 and 86.5433
sample/DMSO (M-833 0.123457 uM, 0.25 mM GlcN, biological replicates 1-4): 95.7043 and 95.071 and 88.6476
sample/DMSO (M-833 0.123457 uM, 2.5 mM GlcN, biological replicates 1-4): 92.7752 and 92.3191 and 78.8024 and 71.4
EC50 (72 h, Fig 2B, SLI-WT, 72 h, n = 3, unit only in x-axis title, read-out: EC50 (95% confidence interval)): 13.4 nM
EC50 (Fig 3C, SLI-WT, 0 mM GlcN, n = 4, unit on plot axis, read-out: EC50 M-833 (95% confidence interval)): 5.9 nM
EC50 (Fig 3C, SLI-WT, 0.25 mM GlcN, n = 4, unit on plot axis, read-out: EC50 M-833 (95% confidence interval)): 3.1 nM
EC50 (Fig 3C, SLI-WT, 2.5 mM GlcN, n = 4, unit on plot axis, read-out: EC50 M-833 (95% confidence interval)): 2.6 nM
fold more sensitive compared to the parental 3D7 parasites (SLI-WT, Fig 2B): 7 fold
fold reduction of EC50 on addition of 2.5 mM GlcN (SLI-WT, PfSTART1 knock-down): 2.3 fold
percent growth inhibition relative to DMSO control (0 mM GlcN, M-833 0.37037 uM, biological replicates 1-4): 99.0454 and 90.3879 and 95.7242 and 88.5343
percent growth inhibition relative to DMSO control (0 mM GlcN, M-833 1.11111 uM, biological replicates 1-4): 99.2981 and 91.8212 and 96.4269 and 89.5933
percent growth inhibition relative to DMSO control (0 mM GlcN, M-833 3.33333 uM, biological replicates 1-4): 98.5962 and 92.1167 and 96.403 and 89.8334
percent growth inhibition relative to DMSO control (0 mM GlcN, M-833 10 uM, biological replicates 1-4): 99.0547 and 92.0133 and 96.7127 and 88.7461
percent growth inhibition relative to DMSO control (0.25 mM GlcN, M-833 0.37037 uM, biological replicates 1-4): 96.4435 and 95.9038 and 89.675
percent growth inhibition relative to DMSO control (0.25 mM GlcN, M-833 1.11111 uM, biological replicates 1-4): 96.5272 and 97.1616 and 91.872
percent growth inhibition relative to DMSO control (0.25 mM GlcN, M-833 3.33333 uM, biological replicates 1-4): 96.834 and 96.2182 and 91.3374
percent growth inhibition relative to DMSO control (0.25 mM GlcN, M-833 10 uM, biological replicates 1-4): 97.0851 and 96.6856 and 92.1644
percent growth inhibition relative to DMSO control (2.5 mM GlcN, M-833 0.37037 uM, biological replicates 1-4): 94.0131 and 93.8677 and 81.9097 and 71.68
percent growth inhibition relative to DMSO control (2.5 mM GlcN, M-833 1.11111 uM, biological replicates 1-4): 94.8008 and 94.5862 and 84.2496 and 73.4
percent growth inhibition relative to DMSO control (2.5 mM GlcN, M-833 3.33333 uM, biological replicates 1-4): 94.7333 and 94.0783 and 84.1867 and 73.32
percent growth inhibition relative to DMSO control (2.5 mM GlcN, M-833 10 uM, biological replicates 1-4): 95.2735 and 94.4252 and 87.0927 and 74.36
